Test results from article PMC9655037, “Alternation of Organ-Specific Exposure in LPS-Induced Pneumonia Mice after the Inhalation of Tetrandrine Is Governed by Metabolizing Enzyme Suppression and Lysosomal Trapping” (International Journal of Molecular Sciences, 2022).
Where “and” joins values, the source holds several entries; their conditions need not be identical. Identical values can stand only once. Like-named read-outs stand apart in the source and are kept apart here.

Assay: Metabolic stability of TET in NADPH-supplemented liver microsomes from normal and LPS-induced ALI mice
Format: in vitro ADME, mouse
Details: for half-life at 1 µM: mouse, microsomes, 1.0 µM TET, 0.5 mg/mL protein, 37 °C, read-out: In vitro t1/2
Experimental: Liver and pulmonary microsomes from normal and LPS-induced pulmonary infected mice were isolated according to the conventional differential centrifugation approach. In brief, six normal mice and six acute pneumonia mice (48 h after i.t. administration of LPS) were sacrificed. Lungs and livers were harvested and rinsed with ice NS. The tissues were weighed and homogenized with 50 mM Tris buffer solution (TBS, m:v = 1:3). The prepared homogenate was then immediately centrifuged at 10,000× g at 4 °C for 20 min. The resulting supernatant was further centrifuged at 105,000× g at 4 °C for 60 min to yield mouse liver microsomes (MLM) and mouse pulmonary microsomes (MPM). The sediment was resuspended with storage buffer (50 mM TBS containing 0.25 M sucrose and 20% glycerol) and stored at −80 °C immediately. The protein content of the harvested microsomes was measured following the BCA protein assay protocol.
TET (1 μM, 1% acetonitrile) was incubated in normal or pneumonia mice liver microsomes or pulmonary microsomes (0.5 mg/mL) diluted with 100 mM PBS (pH 7.4) containing MgCl2 (3 mM). After preincubation of 5 min, the reaction was initiated by adding NADPH (final concentration of 1 mM) at 37 °C. Periodic aliquots of the incubation mixture at 0, 15, 30, and 45 min were removed, and the protein was precipitated with ice-cold acetonitrile containing IS. After centrifugation, the supernatant was collected and analyzed for the depletion of TET by LC-MS/MS.
The in vitro t1/2 in mouse liver microsomal incubation was calculated from the semi-log plot of percentage remaining vs. incubation time and intrinsic clearance (CLint,app mL/min/mg protein) was calculated as Equation (2).
(3) CLint,scaled=CLint,app×45mg microsomes/g liver×g liver/kg body weight (4) CLh,blood=Q×fu,p/Rb/p×CLint/fu,mic/Q+CLint·fu,p/Rb·CLint/fu,mic

SMILES: COc1ccc2cc1Oc1ccc(cc1)C[C@H]1c3cc(c(OC)cc3CCN1C)Oc1c(OC)c(OC)cc3c1[C@H](C2)N(C)CC3 [TET, Tetrandrine]
- CLhep,blood (hepatic clearance, well-stirred model) (LPS-treated mice liver microsomes): 1.48 mL/min/kg and 1.48 ± 0.0136 mL/min/kg
- half-life at 1 µM (pH 7.4, LPS-treated mice liver microsomes): 1.4 ± 0.013 h
- half-life at 1 µM (pH 7.4, normal mice liver microsomes): 0.88 ± 0.0292 h
- CLhep,blood (hepatic clearance, well-stirred model) (normal mice liver microsomes): 2.33 mL/min/kg and 2.33 ± 0.075 mL/min/kg
